According to patent US10376498B2, “3-alkyl pyridinium compound from red sea sponge with potent antiviral activity” (priority 2014, dated 2019):

Molecular target: T1, West Nile Virus NS3 protease (West Nile virus, UniProt P06935, DELINS1467-1501GGGGSGGGG)
T1 construct: truncated form of West Nile NS3 protease (residues 1-186); purchased AnaSep (AnaSpec), San Jose, Calif., USA
T1 sequence (P06935 with tags, fused parts or gaps DELINS1467-1501GGGGSGGGG): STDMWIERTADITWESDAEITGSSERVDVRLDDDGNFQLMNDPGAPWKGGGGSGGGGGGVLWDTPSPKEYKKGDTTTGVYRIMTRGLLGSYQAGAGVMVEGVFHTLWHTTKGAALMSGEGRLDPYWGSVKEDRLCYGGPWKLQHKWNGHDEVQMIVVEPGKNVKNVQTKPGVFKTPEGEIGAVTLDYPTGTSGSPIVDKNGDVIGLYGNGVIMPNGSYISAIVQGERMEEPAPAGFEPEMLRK
Test: West Nile Virus NS3 protease inhibition assay (SensoLyte 440 kit)
Assay type: biochemical
Conditions: LOPAC compounds clustering with fraction 2
Experimental: The SPE fraction was further fractionated in order to isolate the prominent peaks identified by LC-MS using the technique of HPLC and determined retention times.
The West Nile Virus NS3 protease inhibition assay was carried out using the commercial kit SensoLyte® 440 West Nile Virus Protease Assay Kit (AnaSep, San Jose, Calif., USA). The protease is a truncated form of West Nile NS3 protease (residues 1-186) connected to it is NS2B cofactor (residues 49-96) by the linker sequence, […]. Protease activity was assessed by its ability to cleave the fluorogenic peptide Pyr-RTKRAMC, and the subsequent production of free AMC (7-amino-4-methylcoumarin) fluorophores. All extracts and controls were performed with three replicates in a 384-well plate format, each with a total reaction mixture of 33 μl. To begin, the test extracts and protease solution were incubated at 37° C. for 10 min before the addition of the pre-heated substrate. After substrate addition and gentle mixing the reaction was incubated at 37° C. for one hour. The fluorophore was detected with the use of a SpectraMax® Paradigm® Multimode Microplate Detection Platform (Molecular Devices, Sunnyvale, Calif., USA) by scanning at 354 nm excitation wavelength and 442 n emission wavelength.

Structure (SMILES)	inhibition of the WNV NS protease (in words)
C[C@]12C[C@H](O)[C@H]3[C@@H](CCC4=CC(=O)CC[C@@]43C)[C@@H]1CC[C@@H]2C(=O)CO (single isomer, unassigned) [Corticosterone]	no inhibition
Clc1nccc2c1ccc1ccccc12 [CBIQ]	no inhibition
C[C@@H]1C(=O)NC2=Nc3cccc(Cl)c3CN21 [Quazinone]	no inhibition
O.O.O=c1c(O)c(-c2ccc(O)c(O)c2)oc2cc(O)cc(O)c12 [Quercetin dehydrate]	no inhibition
CCN1/C(=C/C(C)=O)Sc2ccc(OC)cc21 [TG003]	no inhibition
